Assay results published in patent US11040082B2, “Compositions and methods for treating colorectal cancer” (Georgia State University Research Foundation, Inc., priority 2014, dated 2021).

Experiments:
colon adenocarcinoma = conditions: cited from earlier work
tumor growth = conditions: several studies; cited from earlier work
[1] = tested on: myeloid leukemia C1498 cells; conditions: in vivo; cited from earlier work
[2] = tested on: PepT1 expression and colitis in IL-10-/- mice; conditions: compared to vehicle-treated; cited from earlier work
DSS-induced colitis = conditions: previous studies; cited from earlier work
PepT1 = biological target: T1, PepT1 (Homo sapiens, UniProt P46059); conditions: in vitro, Caco-2/BBE cells; cited from earlier work
T1 construct: endogenous in cells; host or cells: Caco-2/BBE cells
T1 sequence (P46059 1-708): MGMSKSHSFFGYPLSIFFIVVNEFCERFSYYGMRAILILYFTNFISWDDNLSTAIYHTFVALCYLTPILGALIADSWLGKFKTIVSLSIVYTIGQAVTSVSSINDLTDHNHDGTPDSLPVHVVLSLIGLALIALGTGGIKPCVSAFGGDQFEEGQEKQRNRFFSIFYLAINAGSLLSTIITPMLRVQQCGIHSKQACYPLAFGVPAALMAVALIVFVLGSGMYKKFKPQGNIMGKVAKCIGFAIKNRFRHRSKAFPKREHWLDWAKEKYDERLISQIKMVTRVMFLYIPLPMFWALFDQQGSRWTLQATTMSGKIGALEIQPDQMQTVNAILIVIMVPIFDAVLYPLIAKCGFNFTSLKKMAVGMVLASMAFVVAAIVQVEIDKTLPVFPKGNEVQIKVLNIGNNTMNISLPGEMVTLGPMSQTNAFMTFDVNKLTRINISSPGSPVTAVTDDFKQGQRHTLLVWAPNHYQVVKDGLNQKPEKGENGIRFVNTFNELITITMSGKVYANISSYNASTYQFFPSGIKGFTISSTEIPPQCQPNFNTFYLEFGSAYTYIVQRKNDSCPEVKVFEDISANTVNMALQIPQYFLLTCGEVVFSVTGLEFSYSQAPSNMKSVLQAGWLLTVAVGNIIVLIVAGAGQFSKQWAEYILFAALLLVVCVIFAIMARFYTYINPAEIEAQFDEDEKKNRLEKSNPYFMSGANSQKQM

[3] = tested on: AOM/DSS-induced colon tumorigenesis; assay: AOM/DSS-induced colitis-associated cancer (CAC) model, WT mice, with or without KPV; type: in vivo, mouse
Procedure: (§1) Colonic tumor model: Colon cancer was induced as previously described with some modifications (Greten et al., Cell 118:285-96, 2004). Mice were intraperitoneally injected with AOM (Sigma-Aldrich, St. Louis, Mo.) diluted in PBS (10 mg/kg) and maintained on a regular diet and water for 5 days. The mice were then subjected to two cycles of DSS treatment (MP Biomedicals, Solon, Ohio, USA), with each cycle consisting of 2.5% DSS for 7 days followed by a 14-day recovery period with regular water. Mice were then sacrificed and their colons isolated for further experimentation. Colonic tumors were counted and measured using a dissecting microscope. The total sum of the area of each colon covered by tumor tissue was expressed as the tumor burden index.
(§2) In experiments designed to test the efficacy of KPV (Biopeptide Co. Inc., San Diego, Calif.), the above protocol was slightly modified. Five days after AOM injections (10 mg/kg to WT mice or 15 mg/kg to PepT1-KO mice), the WT and PepT1-KO mice were given 3% DSS with or without KPV for seven days. Following the 7-day treatment, the mice were given normal drinking water for 14 days, then 2.5% DSS (WT) or 3% DSS (PepT1-KO mice) with or without KPV for seven days. Following the 7-day treatment, the mice were given normal drinking water for 14 days. The KPV-treated group received 100 μM KPV in their drinking water along with the DSS during both DSS cycles.
H&E Staining of Colonic Tissue: Mouse colons were fixed in 10%-buffered formalin for 24 hours at room temperature and then embedded in paraffin. Tissues were sectioned at 5-μm thickness and stained with hematoxylin & eosin (H&E) using standard protocols. Images were acquired using an Olympus microscope equipped with a DP-23 digital camera.
Immunohistochemistry: Mouse colonic tissues were fixed in formalin and paraffin-embedded. For Ki67, β-catenin and PepT1 staining, sections were deparaffinized. Slides were incubated in sodium citrate buffer (pH 6.0) and cooked in a pressure cooker for 10 minutes for antigen retrieval. Sections were then blocked with 5% goat serum in TBS followed by incubation for one hour with anti-Ki67 (1:100, Vector Laboratories, Burlingame, Calif.), anti-β-catenin (1:1000, Cell Signaling, Danvers, Mass.) or anti-mPepT1 at 37° C. After washing with TBS, sections were treated with appropriate biotinylated secondary antibodies for 30 minutes at 37° C., and color development was performed using the Vectastain ABC kit (Vector Laboratories). Sections were then counterstained with hematoxylin, dehydrated, and then coverslipped. Images were acquired using an Olympus microscope equipped with DP-23 Digital camera. Ki67-positive cells were counted per crypt.
Therefore, we hypothesized that KPV may help prevent colon tumorigenesis in the AOM/DSS-induced CAC model. To test this hypothesis, WT mice were treated with AOM/DSS or AOM/DSS+KPV (during the DSS cycles). […] In order to investigate any putative protective effect of KPV administration in pepT1-KO mice, the colitis-associated cancer protocol was slightly modified based on the relatively low penetrance of the disease in pepT1-deficient animals (FIG. 3). AOM concentration was increased to 15 mg/kg and DSS was increased to 3% in order to favor tumor development. […] Upregulation of colonic PepT1 may lead to increased interactions between bacterial peptides and intracellular innate immune receptors, including NOD receptors, thus triggering downstream activation of proinflammatory signaling pathways (Dalmasso et. al., Gastroenterology 141:1334-45, 2011; Laroui et al., J. Biol. Chem. 286:31003-13, 2011). Furthermore, previous studies have shown that bacteria are required for the initiation of colonic inflammation and subsequent dysplasia and tumorigenesis (Itzkowitz and Yio, Am. J. Physiol. Gastrointest. Liver Physiol. 287:G7-17, 2004). […]

[4] = tested on: AOM/DSS-induced colon tumorigenesis in PepT1-KO mice; assay: AOM/DSS-induced colitis-associated cancer model, PepT1-KO mice, with or without KPV; type: in vivo, mouse; conditions: AOM 15 mg/kg, 3% DSS, + KPV vs AOM/DSS only
Procedure: as §1, §2
Therefore, we hypothesized that KPV may help prevent colon tumorigenesis in the AOM/DSS-induced CAC model. To test this hypothesis, WT mice were treated with AOM/DSS or AOM/DSS+KPV (during the DSS cycles). […] In order to investigate any putative protective effect of KPV administration in pepT1-KO mice, the colitis-associated cancer protocol was slightly modified based on the relatively low penetrance of the disease in pepT1-deficient animals (FIG. 3). AOM concentration was increased to 15 mg/kg and DSS was increased to 3% in order to favor tumor development. […] Upregulation of colonic PepT1 may lead to increased interactions between bacterial peptides and intracellular innate immune receptors, including NOD receptors, thus triggering downstream activation of proinflammatory signaling pathways (Dalmasso et. al., Gastroenterology 141:1334-45, 2011; Laroui et al., J. Biol. Chem. 286:31003-13, 2011). Furthermore, previous studies have shown that bacteria are required for the initiation of colonic inflammation and subsequent dysplasia and tumorigenesis (Itzkowitz and Yio, Am. J. Physiol. Gastrointest. Liver Physiol. 287:G7-17, 2004). Future studies are warranted to assess the role of PepT1-bacterial interactions in these processes, and whether such interactions contribute to the progression of CAC.

[5] = tested on: Caco2-BBE and Jurkat cells; conditions: stimulation with pro-inflammatory cytokines, co-treated with KPV; cited from earlier work
[6] = tested on: tumorigenesis in IL-10-deficient mice; conditions: even after colitis had developed; cited from earlier work
[7] = AOM/DSS + 100 μM KPV in drinking water during both DSS cycles vs AOM/DSS only
[8] = AOM/DSS + 100 μM KPV vs AOM/DSS only

For `CC(C)C[C@H](NC(=O)[C@@H](O)[C@H](N)Cc1ccccc1)C(=O)O` [bestatin], the “growth of colon adenocarcinoma” value (colon adenocarcinoma) is listed as “inhibits the growth of colon adenocarcinoma”, the cell proliferation (tumor growth) is listed as “decreases cell proliferation” and the tumor growth (tumor growth) is listed as “ameliorates tumor growth”. The “growth of myeloid leukemia C1498 cells” value [1] was “decreases the growth”.

In the case of Lactobacillus plantarum, the “PepT1 expression and activity” value [2] is listed as “reduced PepT1 expression and activity” and the colitis [2] is listed as “attenuated colitis”.

For Lys-Pro-Val [KPV], the “inflammation and DSS-induced colitis” value (DSS-induced colitis) is listed as “decreases inflammation and attenuates DSS-induced colitis”, the “transport via PepT1” value (PepT1) is listed as “transported via PepT1” and the “colon tumorigenesis: overall colonic tumor burden” value [3, 7] is listed as “drastic decreases”. For the same molecule, the “colon tumorigenesis: tumor numbers” value [3, 7] was “drastic decreases”, the “colon tumorigenesis: tumor sizes” value [3, 7] was “drastic decreases” and the “aberrant crypt foci (H&E-stained colonic sections)” value [3, 8] was “fewer aberrant crypt foci”. For the same molecule, the “body weight loss during DSS treatment” value [3, 8] was “lost similar amounts of weight”, the “cellular infiltration (H&E-stained colonic sections)” value [3, 8] was “decreased cellular infiltration” and the “epithelial cell proliferation (Ki67+ cells/crypt)” value [3, 8] was “less epithelial cell proliferation”. The “inflammation (H&E-stained colonic sections)” value [3, 8] was “decreased inflammation”, the protection from tumorigenesis [4] was “not protected from tumorigenesis” and the tumor burden [4] was “remained unchanged”. The tumor numbers [4] was “remained unchanged”, the tumor sizes [4] was “remained unchanged” and the NF-κB activation [5] was “attenuated NF-κB activation”. For the same molecule, the pro-inflammatory cytokine production [5] was “decreased pro-inflammatory cytokine production”.

B1: IL-10: exogenous anti-inflammatory cytokine IL-10 administered to IL-10-deficient mice (protein, UniProt P18893 19-178, looked up)
Interleukin-10: SRGQYSREDNNCTHFPVGQSHMLLELRTAFSQVKTFFQTKDQLDNILLTDSLMQDFKGYLGCQALSEMIQFYLVEVMPQAEKHGPEIKEHLNSLGEKLKTLRMRLRRCHRFLPCENKSKAVEQVKSDFNKLQDQGVYKAMNEFDIFINCIEAYMMIKMKS
In the case of B1, the tumorigenesis [6] is listed as “tumorigenesis was decreased”.
